Type in all cases: cell-based
The subject of assay [1] is human acute leukemia cell OCI-AML-3 (expressing NRAS-Q61L mutant kinase). The experiment in a line: Effect on proliferation of cancer cells, Cell Titer-Glo, 72 hours. The settings on record: OCI-AML-3 cells. As for the experimental part:
(§1) The compounds of the present invention were tested for their effect on growth of cancer cells (Table 2), to further evaluate the compounds herein for their inhibitory effect on proliferation of cancer cells and their selectivity in inhibiting proliferation of cancer cells.
(§2) The above-mentioned BaF3-FL-BRAF-V600E mutant cell line was constructed by the method as follows. The sequence of human full-length BRAF-V600E mutant kinase region was amplified by PCR, inserted into a MSCV-Puro vector (purchased from Clontech), and stably transfected into mouse BaF3 cells by the retroviral method, and the growth factor IL-3 was removed. Eventually, a cell line dependent on a full-length BRAF-V600E protein having various mutation transferred was obtained.
(§3) In the example, solutions of the test compound in DMSO at different concentrations (0.000508 μM, 0.00152 μM, 0.00457 μM, 0.0137 μM, 0.0411 μM, 0.123 μM, 0.370 μM, 1.11 μM, 3.33 μM, 10 μM) was added to the above cells respectively. The cells were incubated for 72 hours. The number of viable cells was detected with a Cell Titer-Glo (Promega, USA) Cell Viability Assay Kit by quantifying the ATP in viable cells. The values of GI50 (unit) of the compounds of the present invention against each of the test cells were determined.
A general note: ATP-based viability assays read luminescence as a measure of living cells.

The subject of assay [2] is human acute leukemia cell NB4 (expressing KRAS-A18D mutant kinase). Described as above. The settings on record: NB-4. As for the experimental part: as §1, §2, §3
The subject of assay [3] is mouse BaF3-FL-BRAF-V600E (stably expressing full-length BRAF-V600E mutant kinase). The description is as above. As for the experimental part:
as §1
(§4) The cells were incubated for 72 hours. The number of viable cells was detected with a Cell Titer-Glo (Promega, USA) Cell Viability Assay Kit by quantifying the ATP in viable cells. The values of GI50 (unit) of the compounds of the present invention against each of the test cells were determined.

Assay [4] relates to colorectal cancer cell COLO205 (expressing BRAF-V600E mutant kinase). Described as above. The settings on record: Homo sapiens, COLO 205. As for the experimental part: as §1, §4
Assay [5] relates to melanoma cell A375 (expressing BRAF-V600E mutant kinase). The description is as above. Particulars: Homo sapiens, A-375. As for the experimental part:
as §1, §4

Assay [6] is described as follows: Effect on proliferation of cells, Cell Titer-Glo, 72 hours. Particulars: Mus musculus, BaF3 cells. As for the experimental part:
The compounds of the present invention were tested for their effect on growth of cancer cells (Table 2), to further evaluate the compounds herein for their inhibitory effect on proliferation of cancer cells and their selectivity in inhibiting proliferation of cancer cells. […]
as §3

This is an account of results in US12115152B2, “Pan-RAF kinase inhibitor and use thereof” (HEFEI INSTITUTES OF PHYSICAL SCIENCE, CHINESE ACADEMY OF …, priority 2019, dated 2024).

Broadly, the GI50 is the concentration at which growth is held to half of that of the control. Lower therefore signals greater sensitivity of the cells.

Consider `Cc1ccc(NC(=O)c2cccc(C(F)(F)F)c2)cc1-n1cc(-c2cnccc2OCCCO)cn1` [Example 162, N-(3-(4-(4-(3-hydoxypropoxy)pyrid-3-yl)-1H-pyrazol-1-yl)-4-methylphenyl)-3-(trifluoromethyl)benzamide], for which the GI50 came out at 11 nM in assay [1]; 61 nM in assay [2]; 3.9 nM in assay [3]; 39 nM in assay [4]; 32 nM in assay [5]; 5000 nM in assay [6].
On to `Cc1ccc(NC(=O)c2cccc(C(C)(C)C#N)c2)cc1-n1cc(-c2cncc(N3CCNCC3)c2)cn1` [Example 163, 3-(2-cyanoprop-2-yl)-N-(4-methyl-3-(4-(5-(piperizan-1-yl)pyrid-3-yl)1H-pyrazol-1-yl)phenyl)benzamide], for which the GI50 was 10 nM in assay [1]; 44 nM in assay [2]; 18 nM in assay [3]; 39 nM in assay [4]; 160 nM in assay [5]; 1600 nM in assay [6].
In the case of `COCCOc1ccncc1-c1cnn(-c2cc(NC(=O)c3cccc(C(C)(C)C#N)c3)ccc2C)c1` [Example 159, 3-(2-cyanoprop-2-yl)-N-(3-(4-(4-(2-methoxyethoxy)pyrid-3-yl)-1H-pyrazol-1-yl)-4-methylphenyl)benzamide], the GI50 in assay [1] was 23 nM; in assay [2], 160 nM; in assay [3], 6.6 nM; in assay [4], 36 nM; in assay [5] it was 22 nM; in assay [6], 5200 nM.
As for `Cc1ccc(NC(=O)c2cccc(C(F)(F)F)c2)cc1-n1cc(-c2cncc(N3CCNCC3)c2)cn1` [Example 164, N-(4-methyl-3-(4-(5-(piperizan-1-yl)pyrid-3-yl)-1H-pyrazol-1-yl)phenyl)-3-(trifluoromethyl)benzamide], the GI50 was 9.1 nM in assay [1]; 35 nM in assay [2]; 4 nM in assay [3]; 71 nM in assay [4]; 120 nM in assay [5]; 1600 nM in assay [6].
